The values below come from article PMC5557466, “Precision medicine approaches to lung adenocarcinoma with concomitant MET and HER2 amplification” (BMC Cancer, 2017).

pIC50: −log10 of the molar value.

Holding throughout (format): cell-based, human
The subject of one assay is 033 T PDX cells. Nature of the assay: In vitro drug sensitivity assay (ATPlite cell viability, 6 days, sphere culture). The note with it: for pIC50: Homo sapiens, primary culture in serum-free sphere conditions; for effect on 033 T cell proliferation (in words): in vitro drug screen. As for the experimental part: (§1) Primary cultures of PDX cells in the serum-free sphere culture conditions were seeded in 384-well plates, at 500 cells per well. Two hours after plating, cells were treated with a drug library in three-fold and 10-point serial dilutions (n = 3, for each condition). Cells were incubated for 6 days at 37 °C, in a 5% CO2 humidified incubator, and the cell viability was analyzed using an adenosine triphosphate monitoring system based on firefly luciferase (ATPlite 1step; PerkinElmer, Waltham, MA, USA). […] The drugs were stored and diluted according to the manufacturer’s instructions. The tested concentrations for each drug were empirically derived, in order to investigate a clinically relevant spectrum of drug activities. IC50 values were calculated as an average of triplicate experiments using S+ Chip Analyzer (Samsung Electro-Mechanics Company, Ltd., Suwon, Korea). In order to investigate the effects of the treatment with targeted agents, signal transduction assays were performed using primarily cultured NSCLC PDX cells, which were maintained overnight in serum-free sphere culture conditions, without growth factors, incubated for 1 h with each inhibitor, and pulsed with original culture medium supplemented with bFGF/EGF/NRG/IGF for 15 min.

Assay [1] has as its system 033 T cells. Nature of the assay: Tumor sphere formation in 033 T cell cultures. Here is the method:
(§2) Xenograft tumor specimens were dissociated into single cells according to previously published protocol. Dissociated cells were cultured in Neurobasal medium-A, supplemented with N2 (×1/2; Life Technologies, Carlsbad, CA, USA), B27 (×1/2; GIBCO), basic fibroblast growth factor (bFGF; 25 ng/mL; R&D Systems, Minneapolis, MN, USA), EGF (25 ng/mL; R&D Systems, Minneapolis, MN, USA), neuregulin 1 (NRG; 10 ng/mL; R&D Systems, Minneapolis, MN, USA), and insulin-like growth factor 1 (IGF1; 100 ng/mL; R&D Systems, Minneapolis, MN, USA). Growth factors were supplemented every 3 days. When spheres appeared in the suspension culture, they were dissociated using StemPro Accutase (Life Technologies, Carlsbad, CA, USA), and reseeded in the suspension culture medium. Cells were grown in complete medium and treated with inhibitors 1 day after seeding. Five days later, the surviving cells were quantified by WST-1 staining (Roche Genentech, San Francisco, CA, USA).

Assay [2] deals with phosphorylation of ERK1/2. Description: Signal transduction assay, western blot. The note with it: 033 T cells. Here is the method:
(§3) Primary cultures of PDX cells in the serum-free sphere culture conditions were seeded in 384-well plates, at 500 cells per well. Two hours after plating, cells were treated with a drug library in three-fold and 10-point serial dilutions (n = 3, for each condition). Cells were incubated for 6 days at 37 °C, in a 5% CO2 humidified incubator, and the cell viability was analyzed using an adenosine triphosphate monitoring system based on firefly luciferase (ATPlite 1step; PerkinElmer, Waltham, MA, USA). The drug library was composed of 17 targeted agents that were included in the clinical guidelines or current clinical trials for the treatment of NSCLC (gefitinib, erlotinib, lapatinib, afatinib, neratinib, caneratinib, dacomitinib, infigratinib, vandetanib, sunitinib, imatinib, CI-1040, vemurafenib, palbociclib, crizotinib, sonidegib, buparlisib; all purchased from Selleckchem, Houston, TX, USA). The drugs were stored and diluted according to the manufacturer’s instructions. The tested concentrations for each drug were empirically derived, in order to investigate a clinically relevant spectrum of drug activities. IC50 values were calculated as an average of triplicate experiments using S+ Chip Analyzer (Samsung Electro-Mechanics Company, Ltd., Suwon, Korea). […]
(In general: In western blotting, separated proteins are transferred to a membrane and probed.)

A further assay relates to phosphorylation of STAT3. Description: Signal transduction assay, western blot. The settings on record: 033 T cells. Here is the method: as §3
Assay [3] concerns 033 T cells. Description: Cell proliferation time course of 033 T cells (WST-1). The settings on record: from day 5 onward. As for the experimental part:
as §2
Background: Tetrazolium assays rely on reduction of a dye to a coloured formazan, in cell work by metabolically active cells.

The subject of another assay is phosphorylation of MET. Nature of the assay: Signal transduction assay, western blot. The note with it: 033 T cells. Here is the method:
as §1

[4] abbreviates: resistant if IC50 > 1000 nmol/L.

In general, pIC50 refers to the negative decadic logarithm of the IC50, by convention in mol/L. A low value points to a high IC50. With `CN(C)C/C=C/C(=O)Nc1cc2c(Nc3ccc(F)c(Cl)c3)ncnc2cc1O[C@H]1CCOC1` [afatinib], in the assay with 033 T PDX cells (setting [4]), the pIC50 is 6.01. With `Nc1cc(C(F)(F)F)c(-c2cc(N3CCOCC3)nc(N3CCOCC3)n2)cn1` [buparlisib], the pIC50 with 033 T PDX cells (setting [4]) was 6.29. On to `C=CC(=O)Nc1cc2c(Nc3ccc(F)c(Cl)c3)ncnc2cc1OCCCN1CCOCC1` [canertinib], for which, in the assay on 033 T PDX cells (setting [4]), the pIC50 is 7.10. Further, in the assay on 033 T PDX cells, the “effect on 033 T cell proliferation (in words)” value (“effect” for short) is “effective”. In the assay on 033 T PDX cells (setting [4]), `C[C@@H](Oc1cc(-c2cnn(C3CCNCC3)c2)cnc1N)c1c(Cl)ccc(F)c1Cl` [crizotinib] had a pIC50 of 6.16. Also, in the assay on 033 T cells [1], the tumor sphere formation entry was “impaired tumor sphere formation”. Further, in assay [2], the “phosphorylation of ERK1/2” value was “completely abolishing”. Moreover, in the assay with phosphorylation of STAT3, the “phosphorylation of STAT3” value was “completely abolishing”. The cell proliferation entry in the assay with 033 T cells [3] is recorded as “significantly inhibited cell proliferation”. Moreover, in the assay on phosphorylation of MET, the “phosphorylation of MET” value is given as “completely abolishing”.

For `C#Cc1cccc(Nc2ncnc3cc(OCCOC)c(OCCOC)cc23)c1` [erlotinib], in the assay on 033 T PDX cells ([…]), the pIC50 is 6.08. `COc1cc2ncnc(Nc3ccc(F)c(Cl)c3)c2cc1OCCCN1CCOCC1` [gefitinib]: the “effect” value with 033 T PDX cells is recorded as “marked inhibitory effects”.

In turn, `CS(=O)(=O)CCNCc1ccc(-c2ccc3ncnc(Nc4ccc(OCc5cccc(F)c5)c(Cl)c4)c3c2)o1` [lapatinib] showed a pIC50 with 033 T PDX cells (setting [4]) of 5.81.

Molecule `CCOc1cc2ncc(C#N)c(Nc3ccc(OCc4ccccn4)c(Cl)c3)c2cc1NC(=O)/C=C/CN(C)C` [neratinib] had a pIC50 with 033 T PDX cells ([…]) of 6.88. Also, the “effect” value in the assay on 033 T PDX cells is “marked inhibitory effects”.
